# Assay results from patent publication US5955576A, “Inhibitors of thrombosis” (Corvas International, Inc., priority 1995, dated 1999).
# Read-outs that look alike come from different tables or passages of the source. Peptide text beside a SMILES is read from it. * marks the point of attachment. Hydrocinnamoyl = O=C(CCc1ccccc1)*; Tos = Cc1ccc(S(=O)(=O)*)cc1
# Legend:
# thrombin = thrombin (Homo sapiens, UniProt P00734); test: Thrombin assay, chromogenic substrate Pefachrome t-PA; format: biochemical; conditions: purified human enzyme, 30 minute incubation, HBSA pH 7.5
# Experimental: (§1) The buffer used for all assays was HBSA (10 mM HEPES, pH 7.5, 150 mM sodium chloride, 0.1% bovine serum albumin). […] Following a 30 minute incubation at ambient temperature, 50 μL of the substrate at the concentrations specified below, was added to the wells yielding a final total volume of 200 μL.
# Thrombin catalytic activity was determined using the chromogenic substrate Pefachrome t-PA (CH3 SO2 -D-hexahydrotyrosine-glycyl-L-arginine-p-nitroaniline, obtained from Pentapharm Ltd.).
# plasmin = plasmin (Homo sapiens, UniProt P00747); test: Plasmin assay, chromogenic substrate S-2251; format: biochemical; conditions: purified human enzyme, 30 minute incubation, HBSA pH 7.5
# Experimental: as §1, with “μL. The initial velocity of chromogenic substrate hydrolysis was measured by the change in absorbance at 405 nm using a Thermo Max® Kinetic Microplate Reader over a 5 minute period in which less than 5% of the added substrate was utilized.” for “μL.”
# Plasmin catalytic activity was determined using the chromogenic substrate, S-2251 [D-valyl-L-leucyl-L-lysine-p-nirtoanilide dihydrochloride], which was obtained from Kabi Diagnostica.
# factor Xa = target: T1, factor Xa (Homo sapiens, UniProt P00742); test: Factor Xa assay, chromogenic substrate S2765; format: biochemical; conditions: purified human enzyme, 30 minute incubation, HBSA pH 7.5
# T1 construct: Human factor Xa was prepared from purified human factor X obtained from Enzyme Research Laboratories; purchased Enzyme Research Laboratories
# Experimental: as §1, with “μL. The initial velocity of chromogenic substrate hydrolysis was measured by the change in absorbance at 405 nm using a Thermo Max® Kinetic Microplate Reader over a 5 minute period in which less than 5% of the added substrate was utilized.” for “μL.”
# Factor Xa catalytic activity was determined using the substrate, S2765 (N-α-benzyloxycarbonyl-D-argininyl-L-glycyl-L-arginine-p-nitroanilide dihydrochloride) which was obtained from Kabi Diagnostica. […] Human factor Xa was prepared from purified human factor X obtained from Enzyme Research Laboratories according to the method described by Bock, P. E. et al., Archives of Biochem. Biophys. 273: 375 (1989). The enzyme was diluted into HBSA prior to the assay in which the final concentration was 0.5 nM.
# [1] = Pharmacokinetics after oral and i.v. administration in dogs; format: in vivo, dog
# Experimental: The pharmacodynamic and pharmacokinetic parameters of the compound of Example 34 (and same compound described in Example 91) were evaluated after oral administration in dogs. Adult beagle dogs (9-12 kg) were housed individually in standard cages, and were fed a standard certified commercial diet and tap water ad libitum. Dogs were given an oral dose of either 10 mg/kg or 20 mg/kg test compound, in 55 ml deionized water, via a gastric tube, followed by a water rinse. In a separate protocol, 5 mg/kg of test compound, in 5 ml 0.9% sodium chloride, were administered by fast bolus i.v. injection through an indwelling saphenous vein catheter. The same dogs were used for all doses and both routes of administration, with a one week wash out period between use of the dogs for the different doses and protocols. […]
# (§2) The blood levels of test compound were measured by extracting the compound from plasma, separation by HPLC, and post-column derivatization with a fluorogenic functional group. The clotting time of blood was measured using an APTT assay, which measures the prolongation of the activated partial thromboplastin time (APTT) by the test compound. […]
# The systemic bioavailability of the test compound administered by the oral route was calculated by comparing the AUC values (area under curve describing level of compound in blood over time) after i.v. and oral administration. […]
# [2] = tested on: activated partial thromboplastin time (APTT); test: APTT clotting time of blood samples after oral dosing in dogs; format: in vivo, dog; conditions: both doses (10 and 20 mg/kg)
# Experimental: The pharmacodynamic and pharmacokinetic parameters of the compound of Example 34 (and same compound described in Example 91) were evaluated after oral administration in dogs. Adult beagle dogs (9-12 kg) were housed individually in standard cages, and were fed a standard certified commercial diet and tap water ad libitum. Dogs were given an oral dose of either 10 mg/kg or 20 mg/kg test compound, in 55 ml deionized water, via a gastric tube, followed by a water rinse. In a separate protocol, 5 mg/kg of test compound, in 5 ml 0.9% sodium chloride, were administered by fast bolus i.v. injection through an indwelling saphenous vein catheter. The same dogs were used for all doses and both routes of administration, with a one week wash out period between use of the dogs for the different doses and protocols.
# Blood samples were collected during the experimental period from the cephalic vein using sodium citrate (0.38% final concentration) as anticoagulant (nine volumes blood to one volume sodium citrate). […]
# as §2
# [3] = tested on: FeCl3 -induced platelet-dependent arterial thrombosis; format: in vivo; conditions: rat carotid artery
# From the text: Res., 60: 269-280 (1990). […] Res., 60: 269-280 (1990). […] The animals were then euthanized.
# T1 sequence (P00742 235-488 limits assumed): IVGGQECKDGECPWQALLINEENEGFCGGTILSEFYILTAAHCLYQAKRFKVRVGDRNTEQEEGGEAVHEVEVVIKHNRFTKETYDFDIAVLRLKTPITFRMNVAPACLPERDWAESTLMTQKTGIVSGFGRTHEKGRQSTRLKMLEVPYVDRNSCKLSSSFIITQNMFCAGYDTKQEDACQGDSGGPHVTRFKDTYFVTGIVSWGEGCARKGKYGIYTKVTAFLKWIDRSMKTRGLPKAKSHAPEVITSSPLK
# T1 sequence (P00742 41-179 partner limits assumed): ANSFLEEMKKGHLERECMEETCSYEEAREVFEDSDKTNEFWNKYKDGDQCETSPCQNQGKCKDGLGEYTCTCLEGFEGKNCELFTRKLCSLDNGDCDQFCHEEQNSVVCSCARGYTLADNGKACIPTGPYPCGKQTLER
# Chain of plasmin (P00747 581-810 limits assumed): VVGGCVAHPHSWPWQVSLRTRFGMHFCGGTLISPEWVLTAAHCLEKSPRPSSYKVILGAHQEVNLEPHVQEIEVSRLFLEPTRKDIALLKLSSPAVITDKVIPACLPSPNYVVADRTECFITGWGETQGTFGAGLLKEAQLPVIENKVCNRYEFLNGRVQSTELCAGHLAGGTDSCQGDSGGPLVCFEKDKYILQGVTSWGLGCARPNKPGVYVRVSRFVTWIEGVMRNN
# Chain of plasmin (P00747 97-580 partner limits assumed): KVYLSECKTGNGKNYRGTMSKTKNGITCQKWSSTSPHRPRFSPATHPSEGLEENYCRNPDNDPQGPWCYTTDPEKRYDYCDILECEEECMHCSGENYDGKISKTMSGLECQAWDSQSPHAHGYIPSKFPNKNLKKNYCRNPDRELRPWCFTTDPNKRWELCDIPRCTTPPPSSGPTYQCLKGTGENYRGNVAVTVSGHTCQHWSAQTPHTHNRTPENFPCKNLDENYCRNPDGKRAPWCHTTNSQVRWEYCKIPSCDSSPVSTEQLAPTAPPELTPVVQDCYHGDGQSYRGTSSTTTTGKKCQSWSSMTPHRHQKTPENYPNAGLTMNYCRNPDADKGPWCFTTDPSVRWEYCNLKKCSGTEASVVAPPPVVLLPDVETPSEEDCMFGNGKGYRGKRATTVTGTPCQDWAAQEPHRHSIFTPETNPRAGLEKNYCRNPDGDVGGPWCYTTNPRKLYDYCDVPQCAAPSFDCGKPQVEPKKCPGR
Compound,IC50 (thrombin),IC50 (plasmin),IC50 (factor Xa),also measured
"COC(=O)C[C@H](NS(=O)(=O)c1ccc2ccccc2c1)C(=O)N1CCC[C@H]1C(=O)N[C@H](C=O)CCCNC(=N)N [2-NpSO2 -Asp(OCH3)-Pro-Arg-al, N-(2-naphthylsulfonyl)-L-aspartyl-(β-methyl ester)-L-prolyl-L-argininal]",0.62 nM,106 nM,4.3 nM,–
"CCCC(CCC)C(=O)N[C@@H](CC(=O)OC)C(=O)N1CCC[C@H]1C(=O)N[C@H](C=O)CCCNC(=N)N [2PrPent-Asp(OCH3)-Pro-Arg-al, N-(2-propylpentanoyl)-L-aspartyl-β-(methyl ester)-L-prolyl-L-argininal]",–,261 nM,–,–
"CCCC(CCC)C(=O)N[C@@H](CC(=O)O)C(=O)N1CCC[C@H]1C(=O)N[C@H](C=O)CCCNC(=N)N [2PrPent-Asp-Pro-Arg-al, N-(2-propylpentanoyl)-L-aspartyl-L-prolyl-L-argininal]",–,254 nM,–,–
"CC(C)CCC(=O)N[C@@H](CC(=O)O)C(=O)N1CCC[C@H]1C(=O)N[C@H](C=O)CCCNC(=N)N [4MeV-Asp-Pro-Arg-al, N-(4-methylpentanoyl)-L-aspartyl-L-prolyl-L-argininal]",–,396 nM,–,–
"COC(=O)C[C@H](NS(=O)(=O)c1ccc(C)cc1)C(=O)N1CCC[C@H]1C(=O)N[C@H](C=O)CCCNC(=N)N [(4-MePh)SO2 -Asp(OCH3)-Pro-Arg-al, N-(4-methylphenylsulfonyl)-L-aspartyl-(β-methyl ester)-L-prolyl-L-argininal] (Tos-Asp(OMe)-Pro-Arg-aldehyde)",1.1 nM,111 nM,9.5 nM,–
"N=C(N)NCCC[C@@H](C=O)NC(=O)[C@@H]1CCCN1C(=O)[C@H](CC(=O)O)NC(=O)CC1CCCCC1 [ChxAc-Asp-Pro-Arg-al, N-(1-cyclohexylacetyl)-L-aspartyl-L-prolyl-L-argininal]",47 nM,75 nM,15 nM,–
"N=C(N)NCCC[C@@H](C=O)NC(=O)[C@@H]1CCCN1C(=O)[C@H](CC(=O)O)NC(=O)CCC1CCCCC1 [ChxPA-Asp-Pro-Arg-al, N-(3-cyclohexanepropionyl)-L-aspartyl-L-prolyl-L-argininal]",–,250 nM,–,–
"CCCC(CCC)C(=O)N[C@@H](CC(=O)OC)C(=O)N1CCC[C@H]1C(=O)N[C@H](C=O)CCCNC(=N)N.O=C(O)C(F)(F)F [Example 34, N-(2-propylpentanoyl)-L-aspartyl-beta-(methyl ester)-L-prolyl-L-argininal, trifluoroacetate salt]",–,–,–,time to maximum blood level of compound [1]: 45 to 60 min; duration of elevated APTT [2]: up to two hours; time to significant elevation of APTT [2]: 20 to 30 min
"N=C(N)NCCC[C@@H](C=O)NC(=O)[C@@H]1CCCN1C(=O)[C@H](CC(=O)O)NC(=O)CCc1ccccc1 [HCA-Asp-Pro-Arg-al, N-(3-phenylpropionyl)-L-aspartyl-L-prolyl-L-argininal] (Hydrocinnamoyl-Asp-Pro-Arg-aldehyde)",–,481 nM,–,"Incidence of Occlusion ([3]; Group1, 25 μg/kg/min i.v. infusion): 5/6; Incidence of Occlusion ([3]; Group2, 50 μg/kg/min i.v. infusion): 1/5; Incidence of Occlusion ([3]; Group3, 100 μg/kg/min i.v. infusion): 0/5"
"CCCCS(=O)(=O)N[C@@H](CC(=O)OC)C(=O)N1CCC[C@H]1C(=O)N[C@H](C=O)CCCNC(=N)N [n-BuSO2 -Asp(OCH3)-Pro-Arg-al, N-(butylsulfonyl)-L-aspartyl-(β-methyl ester)-L-prolyl-L-argininal]",3.7 nM,250 nM,15 nM,–
N-phenylsulfonyl-L-aspartyl-(β-methyl ester)-L-prolyl-L-argininal [BzlSO2 -Asp(OCH3)-Pro-Arg-al],5 nM,–,30 nM,–
